Reference: patent US20250176599A1, “FLAVOR COMPOSITION AND FOOD AND BEVERAGE” (TAKASAGO INTERNATIONAL CORPORATION, priority 2021, published 2025)

Tests used:
[1] = Sensory evaluation of degradation component-added mayonnaise II (1,5-octadien-3-one 5 ppm)
Method: To commercially available mayonnaise (“Kewpie Mayonnaise” manufactured by Kewpie Corporation), each degradation component was added to prepare degradation component-added mayonnaises I and II at the concentrations listed in Table 20. To these degradation component-added mayonnaises, oleic acid was added at the concentrations listed in Table 21 to confirm the intensity of the off-flavor (masking effect) and the intensity of the masking components (impact on the flavor of the mayonnaise itself) for each sample.
Six experienced panelists were selected to conduct a sensory evaluation similar to that of Example 1.
To the degradation component-added mayonnaise II listed in Table 20, menthyl 3-hydroxybutyrate was added at the concentrations listed in Table 22 to confirm the intensity of the off-flavor (masking effect) and the intensity of the masking component (impact on the flavor of the mayonnaise itself) for each sample.

[2] = Sensory evaluation of degradation component-added shortening II (1,5-octadien-3-one 1 ppb); settings: average panel score
Method: (§1) To commercially available shortening (“Pampas LTR30” manufactured by Fuji Oil Co., Ltd.), each degradation component was added to prepare degradation component-added shortenings I and II at the concentrations listed in Table 17. To these degradation component-added shortenings, β-ionone was added at the concentrations listed in Table 18 to confirm the intensity of the off-flavor (masking effect) and the intensity of the masking components (impact on the flavor of the shortening itself) for each sample.
(§2) Eight experienced panelists were selected to conduct a sensory evaluation similar to that of Example 1.
(§3) The same method as in Example 16 was used to confirm the intensity of the off-flavor (masking effect) derived from unsaturated fatty acids by β-damascenone and the intensity of the masking components (impact on the flavor of the shortening itself).

[3] = Sensory evaluation of degradation component-added shortening I ((E)-2-octenal 500 ppb); settings: average panel score
Method: as §1
Eight experienced panelists were selected to conduct a sensory evaluation similar to that of Example 1. […]

[4] = Overall conclusion of the sensory evaluation across shortenings I and II
Method: as §1, §2, §3

| SMILES | Masking Component Intensity ([2]; 1 ppb added) | Off-Flavor Intensity ([2]; 1 ppb added) | Masking Component Intensity ([2]; 1 ppt added) | Off-Flavor Intensity ([2]; 1 ppt added) | Masking Component Intensity ([2]; 10 ppb added) | Off-Flavor Intensity ([2]; 10 ppb added) | Masking Component Intensity ([2]; 10 ppt added) | Off-Flavor Intensity ([2]; 10 ppt added) | Masking Component Intensity ([2]; 100 ppt added) | Off-Flavor Intensity ([2]; 100 ppt added) | Masking Component Intensity ([3]; 1 ppb added) | Off-Flavor Intensity ([3]; 1 ppb added) | Masking Component Intensity ([3]; 1 ppt added) | Off-Flavor Intensity ([3]; 1 ppt added) | Masking Component Intensity ([3]; 10 ppb added) | Off-Flavor Intensity ([3]; 10 ppb added) | Masking Component Intensity ([3]; 10 ppt added) | Off-Flavor Intensity ([3]; 10 ppt added) | Masking Component Intensity ([3]; 100 ppt added) | Off-Flavor Intensity ([3]; 100 ppt added) | further results |
| --- | --- | --- | --- | --- | --- | --- | --- | --- | --- | --- | --- | --- | --- | --- | --- | --- | --- | --- | --- | --- | --- |
| CC(O)CC(=O)OC1CC(C)CCC1C(C)C (stereo not shown) [menthyl 3-hydroxybutyrate] | – | – | – | – | – | – | – | – | – | – | – | – | – | – | – | – | – | – | – | – | concentration that masks the off-flavor and does not affect the flavor of the mayonnaise itself, lower limit [1]: ≥ 100 ppt; concentration that masks the off-flavor and does not affect the flavor of the mayonnaise itself, upper limit [1]: ≤ 100 ppm; Masking Component Intensity ([1]; 1 ppb added): 0.2; Off-Flavor Intensity ([1]; 1 ppb added): 3.0; Masking Component Intensity ([1]; 1 ppm added): 0.6; Off-Flavor Intensity ([1]; 1 ppm added): 0.8; Masking Component Intensity ([1]; 10 ppb added): 0.2; Off-Flavor Intensity ([1]; 10 ppb added): 2.2; Masking Component Intensity ([1]; 10 ppm added): 1.0; Off-Flavor Intensity ([1]; 10 ppm added): 0.6; Masking Component Intensity ([1]; 50 ppm added): 1.6; Off-Flavor Intensity ([1]; 50 ppm added): 0.6; Masking Component Intensity ([1]; 100 ppb added): 0.4; Off-Flavor Intensity ([1]; 100 ppb added): 1.6; Masking Component Intensity ([1]; 100 ppm added): 2.0; Off-Flavor Intensity ([1]; 100 ppm added): 0.6; Masking Component Intensity ([1]; 100 ppt added): 0.2; Off-Flavor Intensity ([1]; 100 ppt added): 3.0 |
| C/C=C/C(=O)C1=C(C)C=CCC1(C)C [β-Damascenone, β-damascenone] | 2.5 | 2.3 | 0.9 | 3.4 | 2.6 | 2.0 | 1.3 | 3.0 | 1.9 | 2.5 | 2.9 | 1.8 | 1.1 | 3.1 | 3.1 | 1.1 | 1.5 | 2.6 | 2.1 | 2.3 | concentration that masks the off-flavor and does not affect the flavor of the shortening itself, upper limit [4]: ≤ 10 ppb |
| CC(=O)/C=C/C1=C(C)CCCC1(C)C [β-Ionone, β-ionone] | 1.9 | 2.4 | 0.4 | 3.6 | 2.3 | 2.0 | 0.9 | 3.4 | 1.5 | 2.8 | 2.1 | 1.5 | 0.6 | 3.1 | 2.6 | 1.1 | 1.1 | 2.6 | 1.8 | 2.4 | concentration that masks the off-flavor and does not affect the flavor of the shortening itself, lower limit [4]: ≥ 10 ppt; concentration that masks the off-flavor and does not affect the flavor of the shortening itself, upper limit [4]: ≤ 10 ppb |
